Results: patent US11655235B2, “Pyrrolidine and piperidine compounds” (YUHAN CORPORATION, priority 2019, dated 2023)

What was measured:
recombinant human DPP7 = target: T1, recombinant human DPP7 (Homo sapiens, UniProt Q9UHL4); assay: DPP7 inhibition, fluorogenic substrate Lys-Pro-AMC; format: biochemical; details: recombinant human DPP7
T1 construct: purchased R&D Systems
Method in brief: (§1)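 Inhibitors are titrated in an 8-point series into the enzyme's assay buffer (DMSO no more than 0.5%). Substrate cleavage at 25 °C is followed by fluorescence, excitation 380 nm and emission 460 nm. IC50 values come from a four-variable logistic model.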

recombinant human DPP8 = target: T2, recombinant human DPP8 (Homo sapiens, UniProt Q6V1X1); assay: DPP8 inhibition, fluorogenic substrate Z-Ala-Pro-AMC; format: biochemical; details: recombinant human DPP8
T2 construct: purchased PBS Bioscience
Method in brief: as §1

recombinant human DPP9 = target: T3, recombinant human DPP9 (Homo sapiens, UniProt Q86TI2); assay: DPP9 inhibition, fluorogenic substrate H-Gly-Pro-AMC; format: biochemical; details: recombinant human DPP9
T3 construct: purchased R&D Systems
Method in brief: as §1

recombinant human PREP = target: T4, recombinant human PREP (Homo sapiens, UniProt P48147); assay: PREP inhibition, fluorogenic substrate Z-Gly-Pro-AMC; format: biochemical; details: Inhibitory Activity (IC50, nM) PREP, recombinant human PREP
T4 construct: purchased R&D System
T4 sequence (P48147 1-710): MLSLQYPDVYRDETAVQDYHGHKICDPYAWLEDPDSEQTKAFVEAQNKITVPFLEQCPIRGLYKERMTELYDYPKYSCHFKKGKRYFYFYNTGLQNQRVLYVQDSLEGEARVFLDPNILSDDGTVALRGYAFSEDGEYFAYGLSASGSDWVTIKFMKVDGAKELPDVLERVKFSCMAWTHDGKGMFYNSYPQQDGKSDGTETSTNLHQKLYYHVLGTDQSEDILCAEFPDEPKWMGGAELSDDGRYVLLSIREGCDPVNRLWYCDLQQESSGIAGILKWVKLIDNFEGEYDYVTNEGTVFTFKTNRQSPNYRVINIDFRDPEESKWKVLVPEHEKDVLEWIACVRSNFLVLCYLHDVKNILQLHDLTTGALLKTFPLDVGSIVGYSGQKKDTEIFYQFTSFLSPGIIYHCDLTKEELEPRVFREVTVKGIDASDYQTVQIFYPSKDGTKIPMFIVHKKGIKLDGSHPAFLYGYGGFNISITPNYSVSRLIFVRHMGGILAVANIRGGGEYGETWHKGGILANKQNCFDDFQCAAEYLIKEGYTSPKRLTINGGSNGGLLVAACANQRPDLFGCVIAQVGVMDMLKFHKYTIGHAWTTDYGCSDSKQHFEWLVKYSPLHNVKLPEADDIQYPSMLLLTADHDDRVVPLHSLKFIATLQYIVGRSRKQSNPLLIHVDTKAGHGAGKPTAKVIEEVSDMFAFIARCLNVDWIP
Method in brief: as §1

Recombinant human FAP = target: T5, Recombinant human FAP (Homo sapiens, UniProt Q12884); assay: FAP FRET assay, FGF21-sequence FRET peptide substrate; format: biochemical; details: FRET peptide with human FGF21 sequence, 6 μM, 37° C.
T5 construct: purchased R&D systems
T5 sequence (Q12884 1-760): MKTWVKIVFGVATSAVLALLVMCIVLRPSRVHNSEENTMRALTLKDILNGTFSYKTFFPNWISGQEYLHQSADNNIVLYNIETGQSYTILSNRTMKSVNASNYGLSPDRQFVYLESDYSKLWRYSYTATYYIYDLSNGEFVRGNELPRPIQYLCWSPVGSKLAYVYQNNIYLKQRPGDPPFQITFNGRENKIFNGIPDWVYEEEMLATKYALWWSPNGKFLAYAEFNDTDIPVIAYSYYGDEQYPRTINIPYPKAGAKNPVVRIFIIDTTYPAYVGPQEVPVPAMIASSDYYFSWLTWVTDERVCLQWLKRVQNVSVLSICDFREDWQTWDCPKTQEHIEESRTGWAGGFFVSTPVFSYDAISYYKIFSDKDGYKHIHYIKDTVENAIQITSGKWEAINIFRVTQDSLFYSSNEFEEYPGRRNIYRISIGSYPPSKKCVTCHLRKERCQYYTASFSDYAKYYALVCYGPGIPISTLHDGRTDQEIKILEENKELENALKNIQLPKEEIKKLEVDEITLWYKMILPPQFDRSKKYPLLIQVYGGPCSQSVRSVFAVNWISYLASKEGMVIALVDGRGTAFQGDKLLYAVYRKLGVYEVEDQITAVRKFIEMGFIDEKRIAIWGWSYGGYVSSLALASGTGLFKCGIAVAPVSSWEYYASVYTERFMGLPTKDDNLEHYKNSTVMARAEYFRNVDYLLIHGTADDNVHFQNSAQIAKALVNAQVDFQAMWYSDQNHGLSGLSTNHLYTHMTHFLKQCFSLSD
Method in brief: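 FRET peptide bearing human FGF21 sequence (6 μM final) cleaved by 10 ng recombinant human FAP at 37° C in HEPES pH 7.2 buffer with NaCl, BSA and EDTA, DMSO up to 0.1%. Signal-rate decrease versus uninhibited control fitted to a four-variable logistic model for IC50.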

DPP4 [1] = target: T6, DPP4 (Homo sapiens, UniProt P27487); assay: DPP4 inhibition, fluorogenic substrate H-Gly-Pro-AMC; format: biochemical; design: purchased R&D Systems; details: recombinant human DPP4
Target sequence in this assay (P27487 whole entry): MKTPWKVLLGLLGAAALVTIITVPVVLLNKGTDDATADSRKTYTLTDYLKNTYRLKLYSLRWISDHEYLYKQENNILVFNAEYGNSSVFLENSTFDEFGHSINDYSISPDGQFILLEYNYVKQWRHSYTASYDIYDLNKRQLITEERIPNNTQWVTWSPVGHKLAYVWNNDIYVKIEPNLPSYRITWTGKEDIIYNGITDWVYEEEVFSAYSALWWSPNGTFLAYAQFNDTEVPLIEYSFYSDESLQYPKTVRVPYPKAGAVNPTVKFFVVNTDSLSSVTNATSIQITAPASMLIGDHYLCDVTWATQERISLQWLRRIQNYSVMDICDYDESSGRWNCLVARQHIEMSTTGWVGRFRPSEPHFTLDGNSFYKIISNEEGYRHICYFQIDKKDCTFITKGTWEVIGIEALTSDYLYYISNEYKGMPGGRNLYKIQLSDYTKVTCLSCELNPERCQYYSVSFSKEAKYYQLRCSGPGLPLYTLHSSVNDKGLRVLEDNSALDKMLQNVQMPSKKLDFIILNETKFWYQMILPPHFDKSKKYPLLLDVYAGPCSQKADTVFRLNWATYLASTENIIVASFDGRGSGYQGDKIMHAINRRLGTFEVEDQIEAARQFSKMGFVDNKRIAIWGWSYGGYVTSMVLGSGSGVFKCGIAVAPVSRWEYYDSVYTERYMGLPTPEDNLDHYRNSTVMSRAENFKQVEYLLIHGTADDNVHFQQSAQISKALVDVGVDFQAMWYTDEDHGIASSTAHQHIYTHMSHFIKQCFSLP

DPP4 [2] = target: T6, DPP4; details: cited from earlier work
Target sequence in this assay (P27487 whole entry, species assumed): as the sequence (P27487 whole entry) above

tumors = details: orally administered, mice; cited from earlier work

T2 sequence (Q6V1X1 whole entry): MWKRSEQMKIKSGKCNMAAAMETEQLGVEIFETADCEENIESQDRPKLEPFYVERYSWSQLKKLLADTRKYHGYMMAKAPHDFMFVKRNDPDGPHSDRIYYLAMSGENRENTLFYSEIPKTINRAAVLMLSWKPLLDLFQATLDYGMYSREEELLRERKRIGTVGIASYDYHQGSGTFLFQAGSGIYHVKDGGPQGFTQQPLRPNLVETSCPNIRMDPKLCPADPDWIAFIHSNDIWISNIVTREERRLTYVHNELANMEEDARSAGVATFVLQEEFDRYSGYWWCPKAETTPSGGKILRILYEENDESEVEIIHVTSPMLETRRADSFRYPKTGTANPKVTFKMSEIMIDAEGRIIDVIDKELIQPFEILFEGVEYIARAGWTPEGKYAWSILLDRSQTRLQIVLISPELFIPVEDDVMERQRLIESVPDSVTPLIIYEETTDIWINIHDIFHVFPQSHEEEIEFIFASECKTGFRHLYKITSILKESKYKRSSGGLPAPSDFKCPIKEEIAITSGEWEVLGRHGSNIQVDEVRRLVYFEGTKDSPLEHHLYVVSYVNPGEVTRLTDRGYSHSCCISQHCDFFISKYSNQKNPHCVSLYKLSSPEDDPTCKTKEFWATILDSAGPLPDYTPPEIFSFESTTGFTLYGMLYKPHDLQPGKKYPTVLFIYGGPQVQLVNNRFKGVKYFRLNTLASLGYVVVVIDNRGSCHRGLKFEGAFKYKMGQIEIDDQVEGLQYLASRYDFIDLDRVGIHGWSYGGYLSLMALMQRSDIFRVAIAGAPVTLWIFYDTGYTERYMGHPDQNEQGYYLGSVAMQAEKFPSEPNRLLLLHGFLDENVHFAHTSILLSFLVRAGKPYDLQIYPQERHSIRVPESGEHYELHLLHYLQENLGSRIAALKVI
T3 sequence (Q86TI2 whole entry): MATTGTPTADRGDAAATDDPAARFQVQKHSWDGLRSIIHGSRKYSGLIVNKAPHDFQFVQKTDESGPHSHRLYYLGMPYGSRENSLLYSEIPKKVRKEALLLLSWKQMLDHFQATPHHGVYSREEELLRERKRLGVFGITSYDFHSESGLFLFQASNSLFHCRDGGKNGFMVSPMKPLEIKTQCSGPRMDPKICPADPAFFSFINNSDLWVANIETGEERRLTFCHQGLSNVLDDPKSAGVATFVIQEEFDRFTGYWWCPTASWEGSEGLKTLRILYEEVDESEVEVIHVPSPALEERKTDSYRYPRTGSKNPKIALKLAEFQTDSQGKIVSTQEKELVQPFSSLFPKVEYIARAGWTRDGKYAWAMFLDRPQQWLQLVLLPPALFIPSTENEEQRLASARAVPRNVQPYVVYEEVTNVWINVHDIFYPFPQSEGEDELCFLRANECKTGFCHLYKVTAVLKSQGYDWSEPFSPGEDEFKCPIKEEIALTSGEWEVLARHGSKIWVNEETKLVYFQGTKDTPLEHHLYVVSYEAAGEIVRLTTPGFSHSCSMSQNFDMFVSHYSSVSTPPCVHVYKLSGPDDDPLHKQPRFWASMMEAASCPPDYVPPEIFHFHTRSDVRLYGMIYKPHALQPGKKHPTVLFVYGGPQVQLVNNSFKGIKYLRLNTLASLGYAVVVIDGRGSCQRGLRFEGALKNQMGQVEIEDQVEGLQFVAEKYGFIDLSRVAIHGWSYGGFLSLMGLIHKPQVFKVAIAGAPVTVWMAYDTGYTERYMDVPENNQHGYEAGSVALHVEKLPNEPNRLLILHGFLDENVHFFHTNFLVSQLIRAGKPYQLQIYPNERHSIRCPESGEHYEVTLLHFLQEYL

`N#C[C@@H]1C[C@H](F)CN1C(=O)CN1CCC(Nc2ccc(C(=O)Nc3ncccn3)c3ncccc23)CC1` [Example 403, 5-[[1-[2-oxo-2-[(2S,4S)-2-cyano-4-fluoro-pyrrolidin-1-yl]ethyl]-4-piperidyl]amino]-N-pyrimidin-2-yl-quinoline-8-carboxamide] gave an IC50 (recombinant human DPP7) of 405 nM, an IC50 (recombinant human DPP8) of 251 nM and an IC50 (recombinant human DPP9) of 558 nM. It also gave an IC50 (recombinant human PREP) of 60.2 nM, an IC50 (Recombinant human FAP) of 1.8 nM and an IC50 (DPP4 [1]) of 2080 nM.
`N#C[C@@H]1C[C@H](F)CN1C(=O)CN1CCC(Nc2ccc(C(=O)Nc3ccccn3)c3ncccc23)CC1` [Example 404, 5-[[1-[2-oxo-2-[(2S,4S)-2-cyano-4-fluoro-pyrrolidin-1-yl]ethyl]-4-piperidyl]amino]-N-(2-pyridyl)quinoline-8-carboxamide] showed an IC50 (recombinant human DPP7) of 634 nM, an IC50 (recombinant human DPP8) of 596 nM and an IC50 (recombinant human DPP9) of 682 nM. For the same molecule, the IC50 (recombinant human PREP) was 78.3 nM, the IC50 (Recombinant human FAP) was 1.8 nM and the IC50 (DPP4 [1]) was 4730 nM.
For `N#C[C@@H]1C[C@H](F)CN1C(=O)CN1CCC(Nc2ccc(C(=O)Nc3cccnc3)c3ncccc23)CC1` [Example 405, 5-[[1-[2-oxo-2-[(2S,4S)-2-cyano-4-fluoro-pyrrolidin-1-yl]ethyl]-4-piperidyl]amino]-N-(3-pyridyl)quinoline-8-carboxamide], the IC50 (recombinant human DPP7) was 392 nM, the IC50 (recombinant human DPP8) was 66.7 nM and the IC50 (recombinant human DPP9) was 398 nM. The IC50 (recombinant human PREP) was 597 nM, the IC50 (Recombinant human FAP) was 1.9 nM and the IC50 (DPP4 [1]) was 2160 nM.
`N#C[C@@H]1C[C@H](F)CN1C(=O)CN1CCC(Nc2ccc(C(=O)Nc3ccncc3)c3ncccc23)CC1` [Example 406, 5-[[1-[2-oxo-2-[(2S,4S)-2-cyano-4-fluoro-pyrrolidin-1-yl]ethyl]-4-piperidyl]amino]-N-(4-pyridyl)quinoline-8-carboxamide] gave an IC50 (recombinant human DPP7) of 402 nM, an IC50 (recombinant human DPP8) of 23.3 nM and an IC50 (recombinant human DPP9) of 218 nM. For the same molecule, the IC50 (recombinant human PREP) was 535 nM, the IC50 (Recombinant human FAP) was 4.2 nM and the IC50 (DPP4 [1]) was 2700 nM.
With `N#C[C@@H]1C[C@H](F)CN1C(=O)CN1CCC(Nc2ccc(C(=O)Nc3ccon3)c3ncccc23)CC1` [Example 407, N-isoxazol-3-yl-5-[[1-[2-oxo-2-[(2S,4S)-2-cyano-4-fluoro-pyrrolidin-1-yl]ethyl]-4-piperidyl]amino]quinoline-8-carboxamide] the IC50 (recombinant human DPP7) was 395 nM, the IC50 (recombinant human DPP8) was 314 nM and the IC50 (recombinant human DPP9) was 756 nM. For the same molecule, the IC50 (recombinant human PREP) was < 30 nM, the IC50 (Recombinant human FAP) was 3.4 nM and the IC50 (DPP4 [1]) was 1820 nM.
With `N#C[C@@H]1CCCN1C(=O)CN1CCC(Oc2ccnc3ccc(F)cc23)CC1` [Example 427, (2S)-1-[2-[4-[(6-fluoro-4-quinolyl)oxy]-1-piperidyl]acetyl]pyrrolidine-2-carbonitrile] the IC50 (recombinant human DPP7) was 15800 nM, the IC50 (recombinant human DPP8) was 36600 nM and the IC50 (recombinant human DPP9) was ≥ 100000 nM. For the same molecule, the IC50 (recombinant human PREP) was 5010 nM, the IC50 (Recombinant human FAP) was 5.6 nM and the IC50 (DPP4 [1]) was 37200 nM.
With `N#C[C@@H]1C[C@H](F)CN1C(=O)CN1CCC(Oc2ccnc3cc(F)ccc23)CC1` [Example 433, (2S,4S)-4-fluoro-1-[2-[4-[(7-fluoro-4-quinolyl)oxy]-1-piperidyl]acetyl]pyrrolidine-2-carbonitrile] the IC50 (recombinant human DPP7) was 3070 nM, the IC50 (recombinant human DPP8) was 3060 nM and the IC50 (recombinant human DPP9) was 3890 nM. The IC50 (recombinant human PREP) was 98 nM, the IC50 (Recombinant human FAP) was 5.1 nM and the IC50 (DPP4 [1]) was 5680 nM.
With `N#Cc1cccc2c(OC3CCN(CC(=O)N4C[C@@H](F)C[C@H]4C#N)CC3)ccnc12` [Example 434, 4-[[1-[2-oxo-2-[(2S,4S)-2-cyano-4-fluoro-pyrrolidin-1-yl]ethyl]-4-piperidyl]oxy]quinoline-8-carbonitrile] the IC50 (recombinant human DPP7) was 4310 nM, the IC50 (recombinant human DPP8) was 2740 nM and the IC50 (recombinant human DPP9) was 4510 nM. The IC50 (recombinant human PREP) was 395 nM, the IC50 (Recombinant human FAP) was 3.6 nM and the IC50 (DPP4 [1]) was 2440 nM.
Work on `Cc1cc(OC2CCN(CC(=O)N3C[C@@H](F)C[C@H]3C#N)CC2)c2ccccc2n1` [Example 436, (2S,4S)-4-fluoro-1-[2-[4-[(2-methyl-4-quinolyl)oxy]-1-piperidyl]acetyl]pyrrolidine-2-carbonitrile] yielded an IC50 (recombinant human DPP7) of 8500 nM, an IC50 (recombinant human DPP8) of 11700 nM and an IC50 (recombinant human DPP9) of 18200 nM. The IC50 (recombinant human PREP) was 555 nM, the IC50 (Recombinant human FAP) was 11.1 nM and the IC50 (DPP4 [1]) was 9040 nM.
With `Cc1cc(OC2CCN(CC(=O)N3C[C@@H](F)C[C@H]3C#N)CC2)c2cc(F)ccc2n1` [Example 437, (2S,4S)-4-fluoro-1-[2-[4-[(6-fluoro-2-methyl-4-quinolyl)oxy]-1-piperidyl]acetyl]pyrrolidine-2-carbonitrile] the IC50 (recombinant human DPP7) was 6260 nM, the IC50 (recombinant human DPP8) was 4150 nM and the IC50 (recombinant human DPP9) was 17400 nM. For the same molecule, the IC50 (recombinant human PREP) was 454 nM, the IC50 (Recombinant human FAP) was 1.8 nM and the IC50 (DPP4 [1]) was 4490 nM.
In the case of `COc1cccc2c(OC3CCN(CC(=O)N4C[C@@H](F)C[C@H]4C#N)CC3)ccnc12` [Example 438, (2S,4S)-4-fluoro-1-[2-[4-[(8-methoxy-4-quinolyl)oxy]-1-piperidyl]acetyl]pyrrolidine-2-carbonitrile], the IC50 (recombinant human DPP7) is reported as 3580 nM, the IC50 (recombinant human DPP8) is reported as 3380 nM and the IC50 (recombinant human DPP9) is reported as 5970 nM. The IC50 (recombinant human PREP) was 156 nM, the IC50 (Recombinant human FAP) was 7.7 nM and the IC50 (DPP4 [1]) was 5670 nM.
With `Cc1cccc2c(OC3CCN(CC(=O)N4C[C@@H](F)C[C@H]4C#N)CC3)ccnc12` [Example 439, (2S,4S)-4-fluoro-1-[2-[4-[(8-methyl-4-quinolyl)oxy]-1-piperidyl]acetyl]pyrrolidine-2-carbonitrile] the IC50 (recombinant human DPP7) was 3110 nM, the IC50 (recombinant human DPP8) was 2700 nM and the IC50 (recombinant human DPP9) was 5460 nM. The IC50 (recombinant human PREP) was 75 nM, the IC50 (Recombinant human FAP) was 3.7 nM and the IC50 (DPP4 [1]) was 6310 nM.
In the case of `CC(C)[C@H](N)C(=O)N1CCC[C@H]1B(O)O` [Val-boroPro, Talabostat], the DPP4 inhibitory activity (DPP4 [2]) is listed as “inhibitory activity”.
For `CC(C)[C@H](N)C(=O)N1CCC[C@H]1B(O)O` [ValboroPro, Val-boroPro], the anticancer activities (tumors) is given as “exhibits anticancer activities in mice by delaying the proliferation of tumors and inducing the degeneration of tumors”.
